Measured values: PMC4210147, “Sequence-Specific Dimerization of a Transmembrane Helix in Amphipol A8-35” (PLoS ONE, 2014)

Assays:
[1] = molecular target: T1, human GpA TM domain (Homo sapiens, UniProt P02724); assay: Steady-state FRET, GpA TM helix dimerization in A8-35; type: binding; details: n = 3; for dimer fraction (in words): pH 7.4, 25°C
T1 construct: purchased Peptide Specialty Laboratories, Heidelberg, Germany; host or cells: chemical synthesis (custom peptide)
T1 sequence (P02724 88-120 limits assumed) 1: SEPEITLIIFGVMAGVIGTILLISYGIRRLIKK
T1 sequence (P02724 88-120 limits assumed) 2: T1 sequence (P02724 88-120 limits assumed) 1
Description: Peptides corresponding to residues 69–101 of the human GpA TM domain ([…]) were custom-synthesized and labeled at the N-terminus with either the donor or the acceptor dyes fluorescein (FL) and 5-6-carboxyrhodamine (TAMRA), respectively (Peptide Specialty Laboratories, Heidelberg, Germany). The purity of the labelled peptides was confirmed by high-performance liquid chromatography (HPLC) and mass spectrometry. Based on this, the labeled peptides used in this study were>95% pure. Peptides were dissolved in 2,2,2-trifluoroethanol purchased from Sigma-Aldrich (Munich, Germany). APol A8-35 was purchased from Affymetrix (Santa Clara, USA) and sodium dodecyl sulfate (SDS) from Roth (Karlsruhe, Germany). N-dodecyl-β-D-maltopyranoside (DDM) was obtained from Sigma-Aldrich (Munich, Germany).
(§1) For Förster resonance energy transfer (FRET) measurements, equal concentrations of FL- and TAMRA-labeled GpA TM domains were used. Concentrations of the peptide stock solutions were determined from absorbance measurements on a Perkin Elmer Lambda 35 UV/VIS spectrophotometer. In all experiments, we used 0.25 µM for each of the two labeled GpA peptides. Peptides dissolved in TFE and A8-35 dissolved in ethanol were mixed, and organic solvents were removed under a gentle stream of nitrogen gas. Residual solvent traces were removed by vacuum desiccation overnight. The dried peptide/polymer film was then hydrated in 10 mM HEPES buffer (pH 7.4) containing 150 mM NaCl.
(§2) After at least 2 h of incubation at 37°C and 10 min of centrifugation at 16,000 g, steady-state fluorescence measurements were performed with the supernatant at 25°C on a Horiba Fluoromax 4 system with both excitation and emission slits at 3 nm. The excitation wavelength was set at 439 nm, and emission spectra were recorded from 480 to 650 nm. For FRET measurements with SDS, several concentrations of SDS, both below and above the CMC determined for the given buffer conditions, were used, and hydrated samples were incubated overnight.
Energy transfer E was calculated using the donor fluorescence intensities at 525 nm in presence and absence of acceptor according to [drawing 1] (1)
FD is the fluorescence intensity of the donor sample, and FDA is the fluorescence intensity of the sample containing donor and acceptor GpA TM domains at equal concentrations. The energy transfer of sequence-specific TM helix dimerization, ED, can be expressed as: [drawing 2] (2) where f D is the fraction of dimeric TM helices, P D is the probability of donor quenching when the peptides form a dimer, and E R is the energy transfer in the dimer.
The probability P D of donor quenching depends on the molar ratio of the acceptor peptides [drawing 3] , where [a] and [d] are the concentrations of acceptor and donor peptides, respectively. If the distance of the fluorophores in the dimer is much smaller than the Förster radius, as is the case here, ER can be taken as unity.
The fraction of dimers can be written as [drawing 4] , where [D] is the concentration of dimeric peptides and [T] the total peptide concentration.
The dissociation constant, K D, is given by [drawing 6] (4) where the monomer concentration is [drawing 7] .

[2] = molecular target: T1, human GpA TM domain; assay: Reversibility of SDS-mediated GpA dimer dissociation, FRET after dilution of SDS; type: binding; details: n = 3
Experimental: as §1
as §2, with “overnight. […]” for “overnight.”

[3] = test system: GpA TM helix dimer; details: ref [24], listed as GpA dimer; cited from earlier work
Description: Thermal denaturation of MPs often leads to irreversible aggregation of the MP, and guanidine hydrochloride and urea, which are frequently used in unfolding studies involving soluble proteins, do typically not denature the TM regions of MPs. This is why the thermodynamic stability of integral MPs within membrane-mimetic systems is often assessed by titrating increasing concentrations of the anionic detergent SDS to MPs dissolved in a mild detergent, such as DDM [24], [40]-[44]. SDS is able to form mixed micelles with other detergents typically used for MP solubilization. […] This indicates a strong destabilizati ...

[4] = test system: GpA TM dimer; details: SDS, DDMAB, DPC, lyso-PC, ref [26]-[28], cited from earlier work

## CC[C@H](C)[C@H](NC(=O)CNC(=O)[C@H](Cc1ccc(O)cc1)NC(=O)[C@H](CO)NC(=O)[C@@H](NC(=O)[C@H](CC(C)C)NC(=O)[C@H](CC(C)C)NC(=O)[C@@H](NC(=O)[C@@H](NC(=O)CNC(=O)[C@@H](NC(=O)[C@@H](NC(=O)CNC(=O)[C@H](C)NC(=O)[C@H](CCSC)NC(=O)[C@@H](NC(=O)CNC(=O)[C@H](Cc1ccccc1)NC(=O)[C@@H](NC(=O)[C@@H](NC(=O)[C@H](CC(C)C)NC(=O)[C@@H](NC(=O)[C@@H](NC(=O)[C@H](CCC(=O)O)NC(=O)[C@@H]1CCCN1C(=O)[C@H](CCC(=O)O)NC(=O)[C@@H](N)CO)[C@@H](C)CC)[C@@H](C)O)[C@@H](C)CC)[C@@H](C)CC)C(C)C)C(C)C)[C@@H](C)CC)[C@@H](C)O)[C@@H](C)CC)[C@@H](C)CC)C(=O)N[C@@H](CCCNC(=N)N)C(=O)N[C@@H](CCCNC(=N)N)C(=O)N[C@@H](CC(C)C)C(=O)N[C@H](C(=O)N[C@@H](CCCCN)C(=O)N[C@@H](CCCCN)C(=O)O)[C@@H](C)CC [GpA TM domain]
[1]; 25 µM A8-35, FL- and TAMRA-labeled GpA 0.25 µM each, 10 mM HEPES pH 7.4, 150 mM NaCl, incubated at least 2 h at 37°C, measured at 25°C
  dimer fraction: about 0.65
[1]; A8-35 range 5 to 75 µM, in contrast to detergents
  GpA dimer dissociation at relatively higher A8-35 concentrations: do not seem to fully dissociate the GpA dimer
[1]; above 25 µM A8-35 (to 75 µM), FL- and TAMRA-labeled GpA 0.25 µM each
  dimer fraction (in words): decreased only faintly with increasing polymer concentrations
[1]; low A8-35 concentrations (range 5 to 75 µM), FL- and TAMRA-labeled GpA 0.25 µM each
  dimer fraction (in words): Almost all peptides were dimeric
[1]; tested A8-35 range 5 to 75 µM, total labeled peptide 0.5 µM, 10 mM HEPES pH 7.4, 150 mM NaCl, 25°C, read-out: apparent dissociation constant K_D of GpA TM dimer
  Kd: < 300 nM
[2]; 2 mM SDS diluted to 0.4 mM SDS, constant 20 µM A8-35 and peptide
  reversibility of dissociation and association of GpA TM helix: fully reversible
[2]; 2 mM SDS sample diluted to 0.4 mM SDS, 20 µM A8-35
  fraction dimer after dilution from higher SDS concentration: comparable to that observed at 0.4 mM SDS
[3]
  dissociation of GpA dimer in mixed DDM/SDS micelles: completely unfolded
[4]; compared to A8-35
  dissociation constants of the GpA TM dimer upon further addition of detergent: increase significantly
[4]; read-out: dissociation constants of the GpA TM dimer in detergents, low detergent concentrations
  Kd: ≤ 500 nM
